Source: US8633301B2, “Antitumor combinations containing antibodies recognizing specifically CD38 and vincristine” (Sanofi, priority 2008, dated 2014)
Values joined by “and” are separate entries in the source; they are usually repeats but may differ in a detail not shown here. Equal entries are not always repeated. “Also recorded” adds a separate entry of the source.

Legend:
[1] = tested on: human T-cell acute lymphoblastic leukemia (T-ALL) cell line, DND-41; assay: Antitumor efficacy against advanced DND-41 tumors implanted in SCID mice; conditions: for T-C (tumor growth delay): time to reach 750 mg; for TFS (tumor free survivors): end of study day 160
Procedure: A product is considered to be active if log10 cell kill is greater than or equal to 0.7. A product is considered to be very active if log10 cell kill is greater than or equal to 2.8.
The animals subjected to the experiment, generally mice, are subcutaneously grafted bilaterally with 30 to 60 mg of a tumor fragment on day 0. The animals bearing tumors are randomized based on their tumor size before being subjected to the various treatments and controls. Chemotherapy begins when tumors have reached a predetermined size after grafting, depending on the type of tumor, and the animals are observed every day. […] The groups are then weighed once or twice a week until the end of the trial.
The tumors are measured 1 to 5 times a week, depending on the tumor doubling time, until the tumor reaches approximately 2 g, or until the animal dies (if this occurs before the tumor reaches 2 g). The animals are necropsied immediately after euthanasia or death.
The selected tumor model was a transplantable human T-cell acute lymphoblastic leukemia (T-ALL) cell line, DND-41, implanted in SCID mice.
Vincristine was formulated in 5% glucose in water.
Tumor doubling time=3.4 days.

[2] = Toxicity (body weight change, drug death) in DND-41 tumor-bearing SCID mice; type: in vivo
[3] = molecular target: T1, murine CD38 (Mus musculus, UniProt P56528); assay: Cross-reactivity of the antibody with murine CD38; type: binding
T1 sequence (P56528 1-304): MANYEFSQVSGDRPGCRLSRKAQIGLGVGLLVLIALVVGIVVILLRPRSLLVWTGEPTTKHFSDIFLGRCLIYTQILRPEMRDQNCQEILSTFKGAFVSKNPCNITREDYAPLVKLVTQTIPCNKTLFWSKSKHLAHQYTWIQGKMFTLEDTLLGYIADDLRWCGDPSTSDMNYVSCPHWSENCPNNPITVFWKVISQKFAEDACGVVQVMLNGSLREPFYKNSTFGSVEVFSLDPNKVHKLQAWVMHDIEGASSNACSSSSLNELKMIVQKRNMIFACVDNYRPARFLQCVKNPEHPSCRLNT

[4] = vincristine alone 0.3 mg/kg/inj (total 1.2) IV
[5] = vincristine alone 0.3 mg/kg/inj IV
[6] = vincristine alone 0.5 mg/kg/inj (total 2.0) IV
[7] = vincristine alone 0.5 mg/kg/inj IV
[8] = vincristine alone 0.8 mg/kg/inj (total 3.2) IV
[9] = vincristine alone 0.8 mg/kg/inj IV
[10] = hu38SB19 alone 40.0 mg/kg/inj (total 160.0) IV days 18, 21, 24, 27
[11] = hu38SB19 alone 40.0 mg/kg/inj IV

Which log10 cell kill [1, 4] does the source give for `CC[C@]1(O)C[C@H]2CN(CCc3c([nH]c4ccccc34)[C@@](C(=O)OC)(c3cc4c(cc3OC)N(C=O)[C@H]3[C@@](O)(C(=O)OC)[C@H](OC(C)=O)[C@]5(CC)C=CCN6CC[C@]43[C@@H]65)C2)C1` [vincristine, Vincristine] here?
Its log10 cell kill is 1.4.

And the “T-C (tumor growth delay)” value [1, 4]?
Its value is 15.6 days.

What about the “comments (activity/toxicity rating)” value [1, 5] of the same compound?
The value was “remained active”.

And the “TFS (tumor free survivors)” value [1, 5]?
The value was 0/6.

What about the log10 cell kill [1, 6] of the same compound?
The log10 cell kill was 3.8.

And the “T-C (tumor growth delay)” value [1, 6]?
The value was 43.3 days.

And the “comments (activity/toxicity rating)” value [1, 7]?
The value was “Highly active”.

And the “TFS (tumor free survivors)” value [1, 7]?
Its value is “no TFS and 0/6”.

What about the log10 cell kill [1, 8] of the same compound?
The log10 cell kill was 4.4.

What about the “T-C (tumor growth delay)” value [1, 8] of the same compound?
Its value is 49.6 days.

And the “comments (activity/toxicity rating)” value [1, 9]?
Its value is “HNTD - Highly active”.

What about the “TFS (tumor free survivors)” value [1, 9] of the same compound?
The value was “no TFS and 0/6”.

And the “BWC (body weight change) at nadir” value [2, 4]?
The value was −0.4%.

And the drug death ([2]; vincristine alone 0.3 mg/kg/inj (total 1.2) IV days 18, 21, 24, 27)?
The drug death was 0/6.

And the “BWC (body weight change) at nadir” value [2, 6]?
Its value is −5.3%.

What about the drug death ([2]; vincristine alone 0.5 mg/kg/inj (total 2.0) IV days 18, 21, 24, 27) of the same compound?
Its drug death is 0/6.

What about the “BWC (body weight change) at nadir” value [2, 8] of the same compound?
The value was −10.4%.

What about the drug death ([2]; vincristine alone 0.8 mg/kg/inj (total 3.2) IV days 18, 21, 24, 27) of the same compound?
Its drug death is 0/6.

And the “BWC (body weight change) at nadir” value ([2]; vincristine alone 1.3 mg/kg/inj (total 5.2) IV)?
Its value is −25.2%.

What about the drug death ([2]; vincristine alone 1.3 mg/kg/inj (total 5.2) IV days 18, 21, 24, 27) of the same compound?
Its drug death is 0/6.

And the “comments (activity/toxicity rating)” value ([2]; vincristine alone 1.3 mg/kg/inj IV)?
The value was “Toxic (−25% BWC)”.

And the “body weight loss at nadir” value ([2]; vincristine alone 1.3 mg/kg/injection, nadir on day 27)?
The value was 25.2%.

And the “highest nontoxic dose (HNTD)” value ([2]; vincristine alone IV days 18, 21, 24, 27, total injected dose 3.2 mg/kg)?
Its value is 0.8 mg/kg/inj.

Which “cross-reactivity with murine CD38” value [3] does the source give for “hu38SB19: humanized anti-CD38 monoclonal antibody 38SB19; VH SEQ ID NO: 66, VL SEQ ID NO: 62 or 64” here?
Its value is “lack of cross-reactivity”.

What about the log10 cell kill [1, 10] of the same compound?
Its log10 cell kill is 0.5.

What about the “T-C (tumor growth delay)” value [1, 10] of the same compound?
The value was 6.1 days.

And the “comments (activity/toxicity rating)” value [1, 11]?
Its value is “not active; also recorded: HDT- Inactive”.

And the “TFS (tumor free survivors)” value [1, 11]?
The value was 0/6.

And the tolerability / toxicity ([2]; hu38SB19 alone 40 mg/kg/inj)?
Its tolerability / toxicity is “well tolerated”.

And the “BWC (body weight change) at nadir” value [2, 10]?
The value was −2.1%.

And the drug death [2, 10]?
Its drug death is 0/6.
